Results published in US5972942A, “Inhibitors of farnesyl-protein transferase” (Merck & Co., Inc., priority 1997, dated 1999).
Counter-ions that a name gives are not always drawn.

Target: T1, human FPTase (Homo sapiens, UniProt P49354+P49356)
T1 construct: made in house
Experiment: In vitro inhibition of ras farnesyl transferase (human FPTase assay)
Assay type: biochemical
Conditions: 100 nM Ras-CVIM, [3H]-farnesyl diphosphate, 30 min, read-out: IC50, inhibitory activity against human FPTase

T1 sequence (P49356 whole entry, one chain of several): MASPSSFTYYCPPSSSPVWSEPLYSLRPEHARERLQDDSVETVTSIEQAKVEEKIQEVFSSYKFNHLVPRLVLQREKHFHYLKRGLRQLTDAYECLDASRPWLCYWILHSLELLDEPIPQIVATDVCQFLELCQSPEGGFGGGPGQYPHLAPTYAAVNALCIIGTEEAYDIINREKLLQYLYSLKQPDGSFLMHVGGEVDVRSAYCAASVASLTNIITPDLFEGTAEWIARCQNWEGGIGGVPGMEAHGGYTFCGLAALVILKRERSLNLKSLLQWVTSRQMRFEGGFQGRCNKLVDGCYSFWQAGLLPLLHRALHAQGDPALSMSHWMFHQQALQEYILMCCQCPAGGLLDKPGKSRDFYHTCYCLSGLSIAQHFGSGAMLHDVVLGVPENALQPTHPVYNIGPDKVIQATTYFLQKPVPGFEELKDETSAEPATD

CCCC[C@H]1CN(CC(F)(F)F)C(=O)CN1Cc1cncn1Cc1ccc(C#N)cc1 [Example 1, 2(S)-n-Butyl-1-[1-(4-cyanobenzyl)-5-imidazolylmethyl]-4-(2,2,2-trifluoroethyl)piperazin-5-one dihydrochloride]
IC50: ≤ 50 µM
